Measurements reported in article PMC3086427 (Clinical cancer research : an official journal of the …, 2008).
Like-named read-outs stand apart in the source and are kept apart here.

Tests used:
[1] = cited from earlier work
[2] = in vivo
colorectal cancer = conditions: 5-FU chemotherapy regimens, advanced-stage CRC; cited from earlier work
clinical = conditions: human, in vivo, po; for half-life: T1/2
phosphorylated EGFR = conditions: 25 mg EKB-569 with full-dose Irinotecan and infusional 5-FU; cited from earlier work
[3] = Plasma pharmacokinetics of EKB-569 and its N-desmethyl metabolite at the MTD
[4] = p.o., continuous schedule, cited from earlier work

O=c1[nH]cc(F)c(=O)[nH]1 [5-FU, 5-fluorouracil]
increase in 5-FU exposure with continual administration of capecitabine ([1]; alone or with other anticancer agents, from no increase upward): ≤ 83% | interpatient variability of 5-FU AUC ([1]; continued daily dosing of capecitabine, day 14): 85% | AUC of 5-FU on day 14 higher than after a single dose ([1]; continued daily dosing of capecitabine): 34% | increase in AUC[0-t] in combination with EKB-569 versus capecitabine alone ([2]; human): 88% | increase in AUC[0-∞] in combination with EKB-569 versus capecitabine alone ([2]; human): 81% | T1/2 ([2]; human, po): 0.73 ± 0.17 h | Tmax ([2]; human, po): 2.00 (0.50–4.00) h | objective response rate (colorectal cancer): ~ 20%

C[C@H]1O[C@@H](n2cc(F)c(=O)[nH]c2=O)[C@H](O)[C@@H]1O [5′-DFUR, 5′-deoxy-5-fluorouridine]
increase in AUC[0-t] in combination with EKB-569 versus capecitabine alone ([2]; human): 28% | increase in AUC[0-∞] in combination with EKB-569 versus capecitabine alone ([2]; human): 31% | half-life (clinical): 0.72 ± 0.14 h | Tmax (clinical): 2 h

CCOc1cc2ncc(C#N)c(Nc3ccc(F)c(Cl)c3)c2cc1NC(=O)/C=C/CN(C)C [EKB-569]
inhibition of phosphorylated EGFR and downstream signaling pathways in skin and tumor samples (phosphorylated EGFR): complete inhibition | Cl/F (oral clearance) ([3]; day 8, 50 mg EKB-569 p.o. daily with 1,000 mg/m^2 capecitabine, mean ± SD): 57 ± 24 L/h | coefficient of variation values for Cmax and AUC (intersubject variability) ([3]; day 8, MTD): < 40% | half-life ([3]; human, plasma, po): 16.6 ± 3.7 h | patients who required a dose reduction of the agent at the MTD (EKB-569 50 mg daily and capecitabine 1,000 mg/m^2 twice daily): four | MTD of EKB-569 combined with capecitabine (daily, p.o., 21-day cycle, with capecitabine 1,000 mg/m^2 twice daily): 50 mg | well-tolerated dose, single agent ([4]; patients with advanced solid tumors): up to 75 mg per day | principal toxicities, single agent [4]: diarrhea and skin rash

CCOc1cc2ncc(C#N)c(Nc3ccc(F)c(Cl)c3)c2cc1NC(=O)/C=C/CNC [N-desmethyl EKB-569]
AUC ([3]; human, in vivo, po): 64.4 ± 43.3 ng·h/mL | Cmax ([3]; human, in vivo, po): 4.2 ± 3.2 ng/mL | T1/2 ([3]; human, in vivo, po): 24.1 ± 9.2 h | Tmax ([3]; human, in vivo, po): 3.5 (2–6) h

CCCCCOC(=O)Nc1nc(=O)n([C@@H]2O[C@H](C)[C@@H](O)[C@H]2O)cc1F [capecitabine, reference compound]
dose reductions of the agent secondary to diarrhea (human, in vivo): 60% | MTD of capecitabine combined with EKB-569 (twice daily for 14 days of a 21-day cycle, with EKB-569 50 mg daily): 1,000 mg/m^2 | mean terminal half-life ([2]; human): half an hour | time at which Cmax was observed after p.o. administration ([2]; human, po): 1 h | difference of pharmacokinetic variables, monotherapy vs combination therapy [2]: no statistically significant difference | half-life (clinical): 0.52 ± 0.17 h | Tmax (clinical): 1 h
